Laboratory results taken from US6399745B1, “Use of leptin antagonists for treating insulin resistance in type II diabetes” (Aventis Pharma Deutschland GmbH, priority 1996, dated 2002).

Tests used:
isolated rat adipocytes [1] = experiment: Lipogenesis (incorporation of D-glucose into toluene-extractable lipids) in isolated rat adipocytes after primary culture with leptin; assay type: cell-based; settings: for Lipogenesis, stimulation factor for insulin (stimulated/basal): Insulin concentration: 5 nM
Protocol: Adipocytes were prepared from the epididymal fat tissue of male Wistar rats (140-160 g, Hoechst AG breeding station, Kastengrund) by means of digesting with collagenase (Rodbell, 1964, J. Biol. Chem. 239, 375-380), washed twice with KRH (25 mM Hepes free acid, 25 mM Hepes sodium salt, 80 mM NaCl, 1 mM MgSO4, 2 mM CaCl2, 6 mM KCl, 1 mM sodium pyruvate, 0.5% BSA) and once with DMEM (Dulbecco's minimal essential medium), supplemented with 5.5 mM glucose, 20 mM Hepes (pH 7.4), 2% fetal calf serum, 1% BSA, 50 U of penicillin/ml, […], by means of flotation (800×g, 1 min, in small plastic tubes), and finally diluted to a volume of 20 ml of DMEM/g wet weight of the fat tissue (cell titer: approximately 2.5×10^5 cells/ml). The adipocytes were incubated, at 37° C. for 15-18 h under an atmosphere of 5% CO2 and with gentle shaking, in supplemented (see above) DMEM in the presence of 100 nM phenylisopropyladenosine (4 ml of DMEM to 1 ml of cells, cell titer approximately 5×10^4 cell/ml, in 50 ml sterile polypropylene: tubes) and in the presence or absence of leptin. The adipocytes were subsequently washed three times with cold KRH and adjusted to a cell titer of approximately 3×10^5 cells/ml by adding 0.7 ml of glucose-free KRH to the cell layer which remained after the complete removal of the last washing solution. In order to determine the capacity of the adipocytes to be stimulated by insulin, and their sensitivity to insulin, following the primary culture, the washed adipocytes were incubated at 37° C. for 20 min in the absence or presence of human insulin (0.02-50 nM final concentration), and glucose transport or lipogenesis was then measured. Lipogenesis was measured as the incorporation of D-glucose into toluene-extractable lipids (Moody et al., 1974, Horm. Metab. Res. 6, 12-16). 200 μl of the adipocyte suspension in KRH were incubated in scintillation vials, at 37° C. for 20 min, in 680 μl of KRH which was supplemented with 3.5 mM glucose and 20 μl of insulin solution. Lipogenesis was started by adding 100 μl of D-[3-^3H]glucose (25 μCi/ml KRH). After incubating at 37° C., and gently shaking under an atmosphere of 5% CO2, for 90 min, 10 ml of scintillation fluid (toluene-based) were added and the radioactivity in the toluene phase was determined after shaking vigorously and subsequent phase separation (at least 4 h of incubation). The radioactivity of the lipids in the toluene phase was corrected for the radioactivity of an incubation mixture which contained the same quantity of [^3H]glucose but no cells. Isolated rat adipocytes were incubated for 15 h in primary culture in the presence or absence of increasing concentrations of leptin. The cells were then washed and tested for glucose transport and lipogenesis in the basal and insulin (10 nM)-stimulated states. The stimulation factor for insulin was calculated as the ratio between insulin-stimulated and basal activities. Each value represents the mean from two independent adipocyte cultures with activity being determined two or three times in each case.

isolated rat adipocytes [2] = experiment: Antagonism of fragment 116-167 to the leptin effect: insulin-stimulated lipogenesis; assay type: cell-based
Protocol: Adipocytes were prepared from the epididymal fat tissue of male Wistar rats (140-160 g, Hoechst AG breeding station, Kastengrund) by means of digesting with collagenase (Rodbell, 1964, J. Biol. Chem. 239, 375-380), washed twice with KRH (25 mM Hepes free acid, 25 mM Hepes sodium salt, 80 mM NaCl, 1 mM MgSO4, 2 mM CaCl2, 6 mM KCl, 1 mM sodium pyruvate, 0.5% BSA) and once with DMEM (Dulbecco's minimal essential medium), supplemented with 5.5 mM glucose, 20 mM Hepes (pH 7.4), 2% fetal calf serum, 1% BSA, 50 U of penicillin/ml, […], by means of flotation (800×g, 1 min, in small plastic tubes), and finally diluted to a volume of 20 ml of DMEM/g wet weight of the fat tissue (cell titer: approximately 2.5×10^5 cells/ml). […] In order to determine the capacity of the adipocytes to be stimulated by insulin, and their sensitivity to insulin, following the primary culture, the washed adipocytes were incubated at 37° C. for 20 min in the absence or presence of human insulin (0.02-50 nM final concentration), and glucose transport or lipogenesis was then measured. Lipogenesis was measured as the incorporation of D-glucose into toluene-extractable lipids (Moody et al., 1974, Horm. Metab. Res. 6, 12-16). […] The radioactivity of the lipids in the toluene phase was corrected for the radioactivity of an incubation mixture which contained the same quantity of [^3H]glucose but no cells. […]

Row | Substance | Lipogenesis, stimulation factor for insulin (stimulated/basal) (isolated rat adipocytes [1]; no leptin) | Lipogenesis, stimulation factor for insulin (stimulated/basal) (isolated rat adipocytes [2]; Insulin only, 5 nM (no leptin, no fragment)) | Lipogenesis, stimulation factor for insulin (stimulated/basal) (isolated rat adipocytes [1]; leptin 0.3 nM 15 h) | Lipogenesis, stimulation factor for insulin (stimulated/basal) (isolated rat adipocytes [1]; leptin 1 nM 15 h) | Lipogenesis, stimulation factor for insulin (stimulated/basal) (isolated rat adipocytes [1]; leptin 3 nM 15 h) | Lipogenesis, stimulation factor for insulin (stimulated/basal) (isolated rat adipocytes [1]; leptin 10 nM 15 h) | Lipogenesis, stimulation factor for insulin (stimulated/basal) (isolated rat adipocytes [1]; leptin 30 nM 15 h) | Lipogenesis, stimulation factor for insulin (stimulated/basal) (isolated rat adipocytes [1]; leptin 100 nM 15 h) | insulin sensitivity of stimulation of lipogenesis (isolated rat adipocytes [1]; leptin, basal values unaffected) | Lipogenesis, stimulation factor for insulin (stimulated/basal) (isolated rat adipocytes [2]; Leptin: 10 nM 17.5 h, no fragment, Insulin: 5 nM)
1 | Insulin: human insulin used to stimulate adipocytes [reference compound] | 3.9 | 3.9 |  |  |  |  |  |  |  | 
2 | Leptin |  |  | 3.9 | 3.2 | 2.15 | 1.5 | 1.15 | 1.05 | drastically reduced | 1.5
